From publication PMC11061149, “Protein mimetic 2D FAST rescues alpha synuclein aggregation mediated early and post disease Parkinson’s phenotypes” (Nature Communications, 2024)
“And” between values parts separate entries of the source, which are not always exact repeats. Identical values can stand only once.

Tests used:
[1] = system: HEK293 cells stably expressing αS-A53T-YFP; experiment: ProteoStat dye assay and confocal imaging, ligand post treatment, αS fibers templated intracellular aggregation; type: cell-based, human
Protocol: To test the antagonist activity of NS163 against intracellular αS aggregation, we utilized HEK293 cells, which stably express αS-A53T-YFP[23],[24],[50]. The endogenous monomeric αS-A53T-YFP template into fibers when transfected with exogenously added αS fibers in the presence of Lipofectamine 3000 (Fig. 3a)[23],[24],[50]. In this assay, preformed fibers of αS (5 µM monomer concentration) were introduced to the HEK cells, followed by the introduction of NS163 to the cells after 8 h, which is the time required for the internalization of aS fibers, as we have shown recently. The HEK cells were incubated for an additional […], which is the total time (24 h) required for the complete maturation of aS inclusions in the HEK cells. To test the effect of the NS163 on the intracellular inclusions (αS-A53T-YFP), we used confocal imaging and a ProteoStat dye-based assay recently developed in our lab[24]. […] NS163 was able to reduce the intracellular inclusions of αS by 76% and 90% at 10 µM and 25 µM, respectively, measured using the ProteoStat dye-based assay (Fig. 5h, +NS163). […] To test their antagonist activity against intracellular αS aggregation, we first determined the cell permeability of the tripyridyls using the PAMPA (Fig. 5a, Supplementary Fig. 18a). […]

[2] = system: UA196 worms; experiment: Confocal counting of healthy DA neurons, post-disease onset PD model of UA196 worms (treatment on day five); type: in vivo, C. elegans
Protocol: The UA196 worms were bleached, and the eggs were incubated on PLATE 1. On day two, the UA196 worms were transferred (using M9 buffer) on PLATE 2 (without ligand). On day five, 10 UA196 worms were used to determine the number of healthy DA worms using confocal imaging (as described earlier) prior to the treatment with ligands on day five. In tandem, ~50 worms were transferred to PLATE 3 (with ligand) using M9 buffer (10-20 µL) and the plate was incubated at 20 °C in the incubator. On days 10 and 15, 10 UA196 worms from PLATE 2 (without ligand) and PLATE 3 (with ligand) were used to determine the number of healthy DA worms using confocal imaging (as described earlier). For each condition, six biological replicates were performed and at least 10 technical replicates were used for each biological replicate. […] (n = 6 independent experiments and each n consisted of a minimum of ten technical replicates).

[3] = UA196 worms+NS132, Day 10, per trial (10 worms)
[4] = UA196 worms+NS132, Day 15, per trial (10 worms)

Structure (SMILES): Cc1ccc(NC(=O)c2ccc(NC(=O)c3ccc([N+](=O)[O-])c(NCCc4c[nH]c5ccccc45)n3)c(NCC3CCCCC3)n2)c(OCC(=O)O)n1 [NS132]
- ProteoStat dye intensity (raw), individual trials ([1]; 5 μM αS fibers, ligand 10 uM added after 8 h): 108 and 126 and 118 and 122 and 111 and 132 and 128 and 121 and 105 and 116 and 120 and 113
- reduction of intracellular inclusions of αS (ProteoStat) ([1]; ligand 10 µM added 8 h after 5 µM αS fibers): 47%
- number of intact healthy DA neurons (max. 60) ([2]; 50 μM ligand on day five, day 15 (untreated 13.8 / 12.8)): 32
- healthy DA neurons, Average ([2]; UA196+ 50 uM NS132, day 5 (same value as UA196 control)): 44.8333
- healthy DA neurons, Average ([2]; UA196+ 50 uM NS132, day 10): 34.8333
- healthy DA neurons, Average ([2]; UA196+ 50 uM NS132, day 15): 32
- healthy DA neurons per trial ([2]; UA196 worms+Ligands, single trials 1-6, day not given): 31 and 33
- Number of worms with 5 neurons [2, 3]: 1 and 2
- Number of worms with 6 neurons [2, 3]: 0
- number of worms with 3 neurons [2, 3]: 4 and 3
- number of worms with 4 neurons [2, 3]: 3 and 4
- Number of worms with 2 neurons [2, 4]: 1 and 2
- Number of worms with 5 neurons [2, 4]: 0
- Number of worms with 6 neurons [2, 4]: 0
- number of worms with 3 neurons [2, 4]: 4 and 3 and 2
- number of worms with 4 neurons [2, 4]: 4 and 5 and 6
